Results on three molecules are retold here after ChEMBL document CHEMBL2406926, “C-Glucopyranosyl-1,2,4-triazoles As New Potent Inhibitors of Glycogen Phosphorylase” (ACS Med Chem Lett, 2013).

As a reminder, the Ki is a measure of affinity in units of concentration, obtained from inhibition or displacement. Higher therefore signals a looser hold on the target.

The target in the assay is T1, Glycogen phosphorylase, muscle form (Oryctolagus cuniculus, UniProt P00489).
T1 sequence (P00489 whole entry): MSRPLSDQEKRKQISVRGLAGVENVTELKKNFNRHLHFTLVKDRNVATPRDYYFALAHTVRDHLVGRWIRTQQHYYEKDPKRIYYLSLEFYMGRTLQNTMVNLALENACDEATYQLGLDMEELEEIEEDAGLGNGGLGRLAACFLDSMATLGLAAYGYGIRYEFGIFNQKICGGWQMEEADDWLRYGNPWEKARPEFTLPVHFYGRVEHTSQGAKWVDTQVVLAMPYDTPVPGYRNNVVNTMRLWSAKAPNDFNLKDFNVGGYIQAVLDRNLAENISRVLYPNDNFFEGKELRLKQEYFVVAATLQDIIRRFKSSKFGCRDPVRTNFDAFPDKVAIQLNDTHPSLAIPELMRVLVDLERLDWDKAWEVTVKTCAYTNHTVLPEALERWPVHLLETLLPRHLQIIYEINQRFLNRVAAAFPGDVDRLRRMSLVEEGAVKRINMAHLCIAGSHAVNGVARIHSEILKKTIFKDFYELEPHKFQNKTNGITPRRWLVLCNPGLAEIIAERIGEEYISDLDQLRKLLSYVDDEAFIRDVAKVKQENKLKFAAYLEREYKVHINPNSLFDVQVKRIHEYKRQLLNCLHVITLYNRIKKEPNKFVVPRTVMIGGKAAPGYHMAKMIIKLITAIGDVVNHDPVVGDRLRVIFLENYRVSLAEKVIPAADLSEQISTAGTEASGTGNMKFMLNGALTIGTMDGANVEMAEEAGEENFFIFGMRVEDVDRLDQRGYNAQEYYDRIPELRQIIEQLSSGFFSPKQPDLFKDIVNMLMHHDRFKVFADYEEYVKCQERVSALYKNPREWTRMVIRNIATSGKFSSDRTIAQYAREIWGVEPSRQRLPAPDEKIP
Description: Competitive inhibition of rabbit muscle glycogen phosphorylase b. On the set-up: species or system Muscle tissue.
Molecule `OCc1n[nH]c([C@@H]2O[C@H](CO)[C@@H](O)[C@H](O)[C@H]2O)n1` returned a Ki of 105 µM.

As to `OC[C@H]1O[C@@H](c2nc(-c3ccc4ccccc4c3)n[nH]2)[C@H](O)[C@@H](O)[C@@H]1O`, the Ki is 0.41 µM.

`OC[C@H]1O[C@@H](c2nnc(-c3ccccc3)[nH]2)[C@H](O)[C@@H](O)[C@@H]1O` came in with a Ki of 7 µM.
